Test results taken from ChEMBL document CHEMBL4184163, “Aspergillus candidus is a newly recognized source of sphaeropsidin A: Isolation, semi-synthetic derivatization and anticancer evaluation” (Bioorg Med Chem Lett, 2017).
The source made the active and inactive calls. No cut-off for these calls is given here.

Key:
Homo sapiens [1] = species on record: Homo sapiens; experiment: Antiproliferative activity against human D423 cells grown as 2D culture at 0.0625 to 10 uM after 5 days by CellTiter-Glo luminescence assay; type: functional, cell-based
Homo sapiens [2] = species on record: Homo sapiens; experiment: Antiproliferative activity against human GLI56 cells grown as 2D culture at 0.0625 to 10 uM after 5 days by CellTiter-Glo luminescence assay; type: functional, cell-based
Homo sapiens [3] = species on record: Homo sapiens; experiment: Antiproliferative activity against human D423 cells grown as 3D culture at 10 uM after 5 days by CellTiter-Glo 3D viability assay; type: functional, cell-based
Homo sapiens [4] = species on record: Homo sapiens; experiment: Antiproliferative activity against human GLI56 cells grown as 3D culture at 10 uM after 5 days by CellTiter-Glo 3D viability assay; type: functional, cell-based
Homo sapiens [5] = species on record: Homo sapiens; experiment: Cytotoxicity against human GLI56 cells grown as 3D culture assessed as disruption of morphological integrity at 10 uM after 5 days by confocal laser scanning microscopic method; type: functional, cell-based
[6] = test system: Panel NCI-60 (60 carcinoma cell lines); experiment: Growth inhibition of human NCI60 cells; type: functional
[7] = Growth inhibition of normal human epidermal melanocytes by MTT assay; type: cell-based, Melanocyte
Homo sapiens [8] = species on record: Homo sapiens; experiment: Cytotoxicity against human D423 cells grown as 3D culture assessed as disruption of morphological integrity at 10 uM after 5 days by confocal laser scanning microscopic method; type: functional, cell-based

SMILES	Activity (Homo sapiens [1])	Activity (Homo sapiens [2])	Activity (Homo sapiens [3])	Activity (Homo sapiens [4])	Activity (Homo sapiens [5])	GI50 [6] [µM]	GI50 [7] [µM]	Activity (Homo sapiens [8])
CC1(C)CCC[C@]23C(=O)O[C@](O)(C(=O)C4=C[C@@](C)(/C=C/[Si](C)(C)C)CC[C@@]42O)[C@@H]13	Active	Active	inactive	inactive	–	–	–	–
C=CCCCC(=O)O[C@]12OC(=O)[C@@]3(CCCC(C)(C)[C@H]13)[C@@]1(O)CC[C@](C)(C=C)C=C1C2=O	Active	Active	inactive	Active	Active	–	–	–
C=C[C@]1(C)C=C2C(=O)[C@@]3(OC(=O)CCC)OC(=O)[C@@]4(CCCC(C)(C)[C@H]34)[C@@]2(O)CC1	Active	Active	inactive	Active	Active	–	–	–
C=C[C@]1(C)C=C2C(=O)[C@@]3(O)OC(=O)[C@@]4(CCCC(C)(C)[C@H]34)[C@@]2(O)CC1 [SPHAEROPSIDIN A]	Active	Active	inactive	inactive	inactive	1.6	13	–
C=C[C@]1(C)C=C2C(=O)[C@@]3(OC(=O)c4ccc(C)o4)OC(=O)[C@@]4(CCCC(C)(C)[C@H]34)[C@@]2(O)CC1	Active	Active	Active	Active	Active	–	–	Active
CC1(C)CCC[C@]23C(=O)O[C@](O)(C(=O)C4=C[C@@](C)(/C=C/c5ccc(Cl)cc5)CC[C@@]42O)[C@@H]13	Active	Active	Active	Active	Active	–	–	Active
